Laboratory results: patent publication US20170008888A1 (KYORIN PHARMACEUTICAL CO., LTD., priority 2014, published 2017)
pEC50, pIC50: −log10 of the molar value.

Columns and labels:
[1] = target: T1, AurA (Homo sapiens, UniProt O14965); assay: Probe-based (AX9989) kinase profiling in Jurkat lysate: AurA; assay type: binding; settings: read-out: AurA Inhibition % at indicated screening concentration; for inhibition at 1 µM: screening concentration 1 μM
T1 construct: screened for activity against several kinases in Jurkat cells; endogenous in cells; host or cells: Jurkat cell lysate
T1 sequence (O14965 1-403): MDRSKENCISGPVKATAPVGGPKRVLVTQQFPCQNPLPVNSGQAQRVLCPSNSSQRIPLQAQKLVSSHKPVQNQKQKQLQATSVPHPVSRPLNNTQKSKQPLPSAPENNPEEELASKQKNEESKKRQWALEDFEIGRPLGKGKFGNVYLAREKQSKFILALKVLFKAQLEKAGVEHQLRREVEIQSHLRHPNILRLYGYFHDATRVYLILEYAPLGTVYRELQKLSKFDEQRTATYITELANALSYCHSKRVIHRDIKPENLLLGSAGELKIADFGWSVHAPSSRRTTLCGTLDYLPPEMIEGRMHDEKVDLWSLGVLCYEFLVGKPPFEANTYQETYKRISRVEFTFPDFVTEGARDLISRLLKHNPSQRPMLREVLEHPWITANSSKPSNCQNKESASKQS
Outline: (§1)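 Percent inhibition was derived from reduced LC/MS fragment intensities of probe-labeled peptides relative to compound-free controls. Before labeling with 5 μM AX9989, Mn2+-supplemented (20 mM) Jurkat lysate was exposed to compound for 15 min at room temperature.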

[2] = target: T2, JAK1 (Homo sapiens, UniProt P23458); assay: Probe-based (AX9989) kinase profiling in Jurkat lysate: JAK1; assay type: binding; settings: read-out: JAK1 Inhibition % at indicated screening concentration; for inhibition at 1 µM: screening concentration 1 μM
T2 construct: screened for activity against several kinases in Jurkat cells; endogenous in cells; host or cells: Jurkat cell lysate
Outline: as §1

[3] = target: T3, TAO2 (Homo sapiens, UniProt Q9UL54); assay: Probe-based (AX9989) kinase profiling in Jurkat lysate: TAO2; assay type: binding; settings: read-out: TAO2 Inhibition % at indicated screening concentration; for inhibition at 1 µM: screening concentration 1 μM
T3 construct: screened for activity against several kinases in Jurkat cells; endogenous in cells; host or cells: Jurkat cell lysate
T3 sequence (Q9UL54 1-1235): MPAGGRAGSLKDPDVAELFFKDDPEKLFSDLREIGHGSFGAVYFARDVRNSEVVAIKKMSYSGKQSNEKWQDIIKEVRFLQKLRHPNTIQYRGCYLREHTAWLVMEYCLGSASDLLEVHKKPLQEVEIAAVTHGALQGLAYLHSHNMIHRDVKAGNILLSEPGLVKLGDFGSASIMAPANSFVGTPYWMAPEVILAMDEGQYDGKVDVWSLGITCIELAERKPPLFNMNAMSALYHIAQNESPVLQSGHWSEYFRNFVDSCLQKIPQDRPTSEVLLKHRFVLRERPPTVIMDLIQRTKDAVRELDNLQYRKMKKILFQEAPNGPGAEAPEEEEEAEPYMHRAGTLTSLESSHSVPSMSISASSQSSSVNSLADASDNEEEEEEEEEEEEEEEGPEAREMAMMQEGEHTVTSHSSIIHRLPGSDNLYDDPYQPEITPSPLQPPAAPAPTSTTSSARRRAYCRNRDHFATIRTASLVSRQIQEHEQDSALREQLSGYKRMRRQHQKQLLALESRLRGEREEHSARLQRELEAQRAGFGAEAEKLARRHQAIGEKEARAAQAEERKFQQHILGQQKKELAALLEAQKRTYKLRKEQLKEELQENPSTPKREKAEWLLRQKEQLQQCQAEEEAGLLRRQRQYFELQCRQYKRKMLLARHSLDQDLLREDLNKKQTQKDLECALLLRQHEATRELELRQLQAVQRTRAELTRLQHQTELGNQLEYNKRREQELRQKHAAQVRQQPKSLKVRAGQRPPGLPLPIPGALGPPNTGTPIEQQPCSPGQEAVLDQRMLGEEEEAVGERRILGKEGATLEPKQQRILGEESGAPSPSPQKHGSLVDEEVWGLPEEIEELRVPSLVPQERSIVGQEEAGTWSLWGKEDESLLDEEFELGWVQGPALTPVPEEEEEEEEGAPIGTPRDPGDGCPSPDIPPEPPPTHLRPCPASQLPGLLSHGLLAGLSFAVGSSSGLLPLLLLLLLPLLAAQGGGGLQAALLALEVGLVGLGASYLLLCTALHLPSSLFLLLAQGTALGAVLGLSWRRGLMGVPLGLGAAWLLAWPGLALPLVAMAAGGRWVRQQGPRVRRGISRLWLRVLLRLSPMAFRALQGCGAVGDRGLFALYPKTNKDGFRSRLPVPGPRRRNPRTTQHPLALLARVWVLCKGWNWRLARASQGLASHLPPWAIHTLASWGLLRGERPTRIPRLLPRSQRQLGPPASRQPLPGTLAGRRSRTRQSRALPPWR
Outline: as §1

[4] = tested on: human PBMCs; assay: Human PBMC TNF-α response to endotoxin (ELISA); assay type: cell-based; settings: 0.1 μg/ml LPS 16 h, read-out: EC50 for the inhibition of the human PBMC TNF-α response to endotoxin, ave. ± S.D.
Outline: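 PBMCs at 2e6 cells/ml in RPMI 1640 with 10% charcoal-dextran-treated FBS were pre-treated 1 h at 37 °C with compound (4-point 1:5 dilution from 10 μM). Stimulation with 0.1 μg/ml E. coli 0111:B4 LPS for 16 h; TNF-α measured by ELISA (A450) in 25-fold diluted supernatant.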

[5] = tested on: ABL or ARG; assay: Probe-based (AX9989) kinase profiling in Jurkat lysate: ABL or ARG; assay type: binding
Outline: as §1

[6] = tested on: AurB or AurC; assay: Probe-based (AX9989) kinase profiling in Jurkat lysate: AurB or AurC; assay type: binding
Outline: as §1

[7] = tested on: AMPKa1 or AMPKa2; assay: Probe-based (AX9989) kinase profiling in Jurkat lysate: AMPKa1 or AMPKa2; assay type: binding
Outline: as §1

[8] = target: T4, ERK5 (Homo sapiens, UniProt Q13164); assay: Probe-based (AX9989 acyl phosphate ATP probe) kinase profiling in Jurkat lysate: ERK5; assay type: binding; settings: for pIC50: calculated from percent inhibition and screening concentration, Jurkat lysate, AX9989 probe; for inhibition at 1 µM: screening concentration 1 μM
T4 construct: screened for activity against several kinases in Jurkat cells; endogenous in cells; host or cells: Jurkat cell lysate
Outline: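 ERK5 IC50 values came from percent inhibition at the screening concentration, measured as loss of LC/MS signal of probe-labelled active-site peptides. Compound was added for 15 min at room temperature to Jurkat lysate (5 mg/ml, 20 mM MnCl2) before labelling with AX9989 ATP acyl phosphate probe at 5 μM.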

[9] = target: T5, ACK (Homo sapiens, UniProt Q07912); assay: Probe-based (AX9989) kinase profiling in Jurkat lysate: ACK; assay type: binding; settings: read-out: ACK Inhibition % at indicated screening concentration; for inhibition at 1 µM: screening concentration 1 μM
T5 construct: screened for activity against several kinases in Jurkat cells; endogenous in cells; host or cells: Jurkat cell lysate
Outline: as §1

[10] = read-out: ERK5 Inhibition % at indicated screening concentration

T4 sequence (Q13164 whole entry): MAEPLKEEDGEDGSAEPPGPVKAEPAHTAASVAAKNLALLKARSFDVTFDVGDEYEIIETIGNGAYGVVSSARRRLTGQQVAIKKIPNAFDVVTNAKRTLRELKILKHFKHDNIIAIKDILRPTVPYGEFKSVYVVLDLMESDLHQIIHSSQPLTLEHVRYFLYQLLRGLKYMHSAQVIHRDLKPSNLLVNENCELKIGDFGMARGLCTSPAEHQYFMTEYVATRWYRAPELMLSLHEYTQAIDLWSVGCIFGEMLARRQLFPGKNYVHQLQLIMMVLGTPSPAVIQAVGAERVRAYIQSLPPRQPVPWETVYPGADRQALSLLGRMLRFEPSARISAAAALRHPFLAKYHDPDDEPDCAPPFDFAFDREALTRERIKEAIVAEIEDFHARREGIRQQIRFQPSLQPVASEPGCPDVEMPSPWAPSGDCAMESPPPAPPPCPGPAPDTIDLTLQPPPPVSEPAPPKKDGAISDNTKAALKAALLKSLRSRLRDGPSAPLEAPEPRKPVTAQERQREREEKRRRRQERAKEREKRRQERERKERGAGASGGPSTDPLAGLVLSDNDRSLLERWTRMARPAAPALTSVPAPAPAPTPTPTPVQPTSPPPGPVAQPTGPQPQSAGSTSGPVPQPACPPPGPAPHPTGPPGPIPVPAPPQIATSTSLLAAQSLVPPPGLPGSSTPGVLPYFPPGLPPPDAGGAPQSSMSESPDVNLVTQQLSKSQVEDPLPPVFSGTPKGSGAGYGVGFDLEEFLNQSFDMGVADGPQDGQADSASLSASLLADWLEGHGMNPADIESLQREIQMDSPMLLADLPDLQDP
T5 sequence (Q07912 whole entry): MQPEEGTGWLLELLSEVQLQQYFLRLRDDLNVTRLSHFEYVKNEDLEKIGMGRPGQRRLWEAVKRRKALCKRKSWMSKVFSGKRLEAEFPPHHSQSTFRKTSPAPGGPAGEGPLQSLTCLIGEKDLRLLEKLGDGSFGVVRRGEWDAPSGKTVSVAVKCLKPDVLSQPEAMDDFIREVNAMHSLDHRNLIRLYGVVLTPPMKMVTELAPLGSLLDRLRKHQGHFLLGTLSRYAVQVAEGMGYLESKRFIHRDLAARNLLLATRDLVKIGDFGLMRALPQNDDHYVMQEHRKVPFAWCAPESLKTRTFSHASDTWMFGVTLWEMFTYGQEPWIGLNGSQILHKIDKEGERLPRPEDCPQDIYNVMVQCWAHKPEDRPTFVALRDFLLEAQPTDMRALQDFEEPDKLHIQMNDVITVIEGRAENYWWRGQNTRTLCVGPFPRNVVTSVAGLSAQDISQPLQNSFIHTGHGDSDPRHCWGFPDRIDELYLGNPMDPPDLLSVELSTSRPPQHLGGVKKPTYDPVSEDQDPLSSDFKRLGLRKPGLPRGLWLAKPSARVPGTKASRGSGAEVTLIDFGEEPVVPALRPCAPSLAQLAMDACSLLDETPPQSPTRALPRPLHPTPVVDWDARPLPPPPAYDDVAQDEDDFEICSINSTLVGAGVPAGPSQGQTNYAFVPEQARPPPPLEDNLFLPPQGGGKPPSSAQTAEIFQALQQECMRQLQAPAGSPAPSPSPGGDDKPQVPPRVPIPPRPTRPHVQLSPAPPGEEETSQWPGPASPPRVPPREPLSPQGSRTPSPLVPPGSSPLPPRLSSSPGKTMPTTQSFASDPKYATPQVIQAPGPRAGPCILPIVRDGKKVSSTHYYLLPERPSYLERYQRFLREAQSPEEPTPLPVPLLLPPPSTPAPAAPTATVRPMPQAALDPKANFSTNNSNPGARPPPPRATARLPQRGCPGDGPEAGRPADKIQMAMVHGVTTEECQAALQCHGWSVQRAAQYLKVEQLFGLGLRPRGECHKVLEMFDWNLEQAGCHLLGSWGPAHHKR
T2 sequence (P23458 whole entry): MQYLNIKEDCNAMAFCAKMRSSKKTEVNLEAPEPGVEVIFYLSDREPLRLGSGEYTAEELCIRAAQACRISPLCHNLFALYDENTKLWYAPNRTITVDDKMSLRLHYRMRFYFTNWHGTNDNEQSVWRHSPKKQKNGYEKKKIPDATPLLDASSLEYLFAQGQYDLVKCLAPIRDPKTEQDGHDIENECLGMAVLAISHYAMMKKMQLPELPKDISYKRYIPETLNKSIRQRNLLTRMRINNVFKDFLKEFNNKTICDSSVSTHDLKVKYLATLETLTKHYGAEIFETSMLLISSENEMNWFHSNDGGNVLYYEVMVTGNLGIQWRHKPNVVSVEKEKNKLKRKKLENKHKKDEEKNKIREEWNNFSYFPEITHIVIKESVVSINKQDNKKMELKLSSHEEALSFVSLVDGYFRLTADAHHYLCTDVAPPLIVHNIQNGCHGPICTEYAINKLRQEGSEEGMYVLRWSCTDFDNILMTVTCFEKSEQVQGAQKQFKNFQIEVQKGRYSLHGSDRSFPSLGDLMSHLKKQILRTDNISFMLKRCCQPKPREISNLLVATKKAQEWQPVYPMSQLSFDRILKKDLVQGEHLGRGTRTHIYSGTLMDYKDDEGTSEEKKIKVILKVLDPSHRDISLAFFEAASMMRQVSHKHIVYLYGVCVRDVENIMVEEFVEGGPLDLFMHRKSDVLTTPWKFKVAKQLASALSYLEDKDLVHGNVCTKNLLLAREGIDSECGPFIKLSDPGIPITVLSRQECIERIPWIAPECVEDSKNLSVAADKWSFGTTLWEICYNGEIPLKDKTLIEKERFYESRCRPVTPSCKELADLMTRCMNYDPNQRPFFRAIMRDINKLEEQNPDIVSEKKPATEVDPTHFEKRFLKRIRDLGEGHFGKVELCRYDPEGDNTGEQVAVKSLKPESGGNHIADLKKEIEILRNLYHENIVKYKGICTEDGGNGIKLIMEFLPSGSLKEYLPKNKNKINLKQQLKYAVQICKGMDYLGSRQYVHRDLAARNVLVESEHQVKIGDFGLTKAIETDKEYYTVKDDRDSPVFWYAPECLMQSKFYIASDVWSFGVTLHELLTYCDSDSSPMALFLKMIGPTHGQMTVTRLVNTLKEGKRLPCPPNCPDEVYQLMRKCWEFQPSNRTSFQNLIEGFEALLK

Structure (SMILES)	inhibition at 1 µM [1]	inhibition at 1 µM [2]	inhibition at 1 µM [3]	ABL or ARG Inhibition % at indicated screening concentration ([5]; screening concentration 1 μM)	AurB or AurC Inhibition % at indicated screening concentration ([6]; screening concentration 1 μM)	AMPKa1 or AMPKa2 Inhibition % at indicated screening concentration ([7]; screening concentration 1 μM)	pIC50 [8]	inhibition at 1 µM [8, 10]	inhibition at 1 µM [9]	inhibition at 10 µM ([1]; screening concentration 10 μM)	inhibition at 10 µM ([2]; screening concentration 10 μM)	inhibition at 10 µM ([3]; screening concentration 10 μM)	ABL or ARG Inhibition % at indicated screening concentration ([5]; screening concentration 10 μM)	AurB or AurC Inhibition % at indicated screening concentration ([6]; screening concentration 10 μM)	AMPKa1 or AMPKa2 Inhibition % at indicated screening concentration ([7]; screening concentration 10 μM)	inhibition at 10 µM ([8]; screening concentration 10 μM, read-out: ERK5 Inhibition % at indicated screening concentration)	inhibition at 10 µM ([9]; screening concentration 10 μM)	pEC50 [4]
CCOc1cc(C(=O)N2CCC(N3CCCC3)CC2)ccc1Nc1cc2c(cn1)N(C)C(=O)c1scnc1N2C [Compound T6]	≤ 35%	≤ 35%	≤ 35%	E (E is ≦35%)	E (E is ≦35%)	E (E is ≦35%)	≥ 7.30	> 90%	≤ 35%									6.40
CCOc1cc(C(=O)N2CCN(C(C)=O)CC2)ccc1Nc1cc2c(cn1)N(C)C(=O)c1ccccc1N2C1CC1 [Compound T67]	≤ 35%	≤ 35%	≤ 35%	E (E is ≦35%)	E (E is ≦35%)	E (E is ≦35%)	≥ 7.30	> 90%	35 to 50%									5.31

Further lines, with some results ahead:

inhibition at 1 µM [1]	inhibition at 1 µM [2]	inhibition at 1 µM [3]	ABL or ARG Inhibition % at indicated screening concentration ([5]; screening concentration 1 μM)	AurB or AurC Inhibition % at indicated screening concentration ([6]; screening concentration 1 μM)	AMPKa1 or AMPKa2 Inhibition % at indicated screening concentration ([7]; screening concentration 1 μM)	pIC50 [8]	inhibition at 1 µM [8, 10]	inhibition at 1 µM [9]	inhibition at 10 µM ([1]; screening concentration 10 μM)	inhibition at 10 µM ([2]; screening concentration 10 μM)	inhibition at 10 µM ([3]; screening concentration 10 μM)	ABL or ARG Inhibition % at indicated screening concentration ([5]; screening concentration 10 μM)	AurB or AurC Inhibition % at indicated screening concentration ([6]; screening concentration 10 μM)	AMPKa1 or AMPKa2 Inhibition % at indicated screening concentration ([7]; screening concentration 10 μM)	inhibition at 10 µM ([8]; screening concentration 10 μM, read-out: ERK5 Inhibition % at indicated screening concentration)	inhibition at 10 µM ([9]; screening concentration 10 μM)	Structure (SMILES)	pEC50 [4]
≤ 35%	≤ 35%	≤ 35%	E (E is ≦35%)	E (E is ≦35%)	E (E is ≦35%)	7.00 to 7.30	> 90%	≤ 35%									CCOc1cc(C(=O)N2CCCNCC2)ccc1Nc1cc2c(cn1)N(C)C(=O)c1scnc1N2C [Compound T7]	6.47
≤ 35%	≤ 35%	≤ 35%	E (E is ≦35%)	E (E is ≦35%)	E (E is ≦35%)	6.30 to 7.00	50 to 75%	≤ 35%									CCOc1cc(C(=O)N[C@H]2CC[C@H](C#N)CC2)ccc1Nc1cc2c(cn1)N(C)C(=O)c1ccccc1N2C [Compound T59]	6.14
						< 6.30			≤ 35%	≤ 35%	≤ 35%	E (E is ≦35%)	E (E is ≦35%)	E (E is ≦35%)	35 to 50%	50 to 75%	CCOc1cc(C(=O)N2CCC(N3CCCC3)CC2)ccc1Nc1cc2c(cn1)N(C)C(=O)N1C=CC=CC1=N2 [Compound T66]	< 5.00
